Earlier results, collected in patent US5547866A (priority 1994, dated 1996).

Test system: breast, lung and other cancers
Settings: background

SMILES: CC(=O)O[C@H]1C(=O)[C@@]2(C)[C@H]([C@H](OC(=O)c3ccccc3)[C@]3(O)C[C@H](OC(=O)[C@H](O)[C@@H](NC(=O)c4ccccc4)c4ccccc4)C(C)=C1C3(C)C)[C@]1(OC(C)=O)CO[C@@H]1C[C@@H]2O [taxol]
- activity against breast, lung and other cancers: shown activity against breast, lung and other cancers
